Assay results reported in patent US20260308157A1, “Pyrrolopyrazine Compounds, Preparation Thereof and Therapeutic Uses Thereof” (Sanofi, priority 2023, published 2026).

How the values were obtained:
Cellular ERK5 Activity = target: T1, Cellular ERK5 Activity (Homo sapiens, UniProt Q13164); assay: Inhibition of Cellular ERK5 Activity (cell-based assay, MEF2 luciferase reporter in SN12C cells); conditions: renal cancer cell line SN12C, doxycycline-induced MEK5DD, 0.3-10000 nM, mean where repeated
T1 construct: MEF2-response-element luciferase reporter (pGreenFire1)
T1 sequence (Q13164 whole entry): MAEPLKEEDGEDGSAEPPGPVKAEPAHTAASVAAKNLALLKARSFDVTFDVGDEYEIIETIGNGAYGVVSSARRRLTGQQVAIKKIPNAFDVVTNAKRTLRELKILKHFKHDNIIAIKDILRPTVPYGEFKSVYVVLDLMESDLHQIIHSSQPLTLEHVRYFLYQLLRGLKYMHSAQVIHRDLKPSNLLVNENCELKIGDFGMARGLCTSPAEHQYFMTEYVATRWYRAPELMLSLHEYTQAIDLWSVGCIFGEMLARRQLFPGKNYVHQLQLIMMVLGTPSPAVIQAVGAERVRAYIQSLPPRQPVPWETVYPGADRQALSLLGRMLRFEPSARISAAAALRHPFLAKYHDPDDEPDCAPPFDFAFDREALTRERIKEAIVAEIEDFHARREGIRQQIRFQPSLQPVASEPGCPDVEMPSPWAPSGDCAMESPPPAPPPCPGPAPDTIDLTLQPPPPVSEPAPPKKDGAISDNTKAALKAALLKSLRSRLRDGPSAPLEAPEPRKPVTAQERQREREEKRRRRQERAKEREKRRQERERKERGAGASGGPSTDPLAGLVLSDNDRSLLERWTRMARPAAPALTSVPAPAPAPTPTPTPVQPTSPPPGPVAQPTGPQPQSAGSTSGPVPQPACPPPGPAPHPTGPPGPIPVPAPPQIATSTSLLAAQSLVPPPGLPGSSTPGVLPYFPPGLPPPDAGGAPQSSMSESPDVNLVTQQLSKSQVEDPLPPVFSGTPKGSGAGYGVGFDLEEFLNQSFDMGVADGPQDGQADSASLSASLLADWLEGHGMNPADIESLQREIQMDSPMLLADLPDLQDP
Description: (§1) Two assays were performed to assess the ERK5 inhibitory activity of compounds of the Examples, a cell-based assay and a cell-free biochemical assay. Where repeat measurements were taken, the value reported is a mean average.
Inhibition of Cellular ERK5 Activity
The renal cancer cell line SN12C was transduced by a lentivirus pGreenFire1 MEF2 EF1 Neo (ref TR030VA-N) from SBI using standard infection protocol. pGreenFire1 MEF2 EF1 Neo allows the expression of luciferase gene under the control of minimal promoter with MEF2 transcriptional response elements. Cells harboring the reporter construct were selected by geneticin treatment. The selected cells were then transposed by a piggyback based plasmid pCM4007 allowing the expression of constitutively activated MEK5DD under control of TREG3 promoter, a doxycycline regulated promoter. Transposed cells were selected by puromycin treatment. Upon doxycycline treatment (1 μg/ml) MEK5DD was expressed. MEK5DD activates ERK5 that phosphorylates MEF2C protein. Activated MEF2C protein can bind to its transcriptional response elements. Then the luciferase is expressed. In a 96-well plate (96F nuncleon ref137101 thermofisher), 50,000 cells were inoculated in 142.5 μl of RPMI medium containing 10% fetal calf serum, 1% glutamine, and 1 μg/ml doxycycline. After 24 hours, compounds were added in 7.5 μl culture medium (with 2% DMSO to give a final concentration of 0.1%) in order to obtain the desired concentration (0.3-10000 nM). The luciferase activity was measured using the Kit Bright Glo Luminescent Cell Assay Cat E2610 (Promega) according to the manufacturer's protocol. Luminescence was determined using 0.2 second reading/well using a Tecan SPARK. IC50 values were calculated using XLFIT5 for Microsoft Excel using method 205. The IC50 values represent the concentration of compound which inhibits the measurable luminescence signal by 50% as compared to DMSO-treated control cells.

[1] = target: T2, activated catalytic domain of protein ERK5 (Homo sapiens, UniProt Q13164); assay: Cell-Free Assay of ERK5 Inhibition (Time-Resolved Forster Resonance Energy Transfer); assay type: biochemical; conditions: ERK5 4 nM, 1 mM ATP, 1 μM biotinylated 4EBP1 peptide, 30 min at 37° C.; TR-FRET; mean where repeated
T2 construct: purchased CarnaBiosciences #04-146
T2 sequence (Q13164 55-347 limits assumed): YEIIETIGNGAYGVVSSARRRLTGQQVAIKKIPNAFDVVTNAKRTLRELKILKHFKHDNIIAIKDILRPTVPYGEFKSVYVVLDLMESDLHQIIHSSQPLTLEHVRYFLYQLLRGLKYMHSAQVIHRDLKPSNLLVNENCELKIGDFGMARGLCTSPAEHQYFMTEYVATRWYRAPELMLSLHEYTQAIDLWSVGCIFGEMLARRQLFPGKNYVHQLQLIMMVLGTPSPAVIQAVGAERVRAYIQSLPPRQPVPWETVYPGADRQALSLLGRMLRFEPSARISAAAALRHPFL
Description: as §1
Cell-Free Assay of ERK5 Inhibition
An assay was performed to measure the capacity of each compound to inhibit ERK5 enzymatic activity. Compound potency was evaluated by Time-Resolved Forster Resonance Energy Transfer (FRET system). The activated catalytic domain of protein ERK5 (CarnaBiosciences #04-146) was mixed at 4 nM with varying concentrations of compound and incubated for 30 minutes at room temperature. A mixture of 1 mM ATP and 1 μM biotinylated synthetic peptide was added (Biosyntan GmbH). This synthetic peptide represents amino acids 30-52 of Eukaryotic translation initiation factor 4E-binding protein 1 (see, e.g., the sequence under accession No. NP_004086.1) biotinylated at the N-terminus. After 30 minutes at 37° C., the peptide phosphorylation by ERK5 was measured by addition of FRET reagents consisting of 12.5 µg/ml Streptavidin-XL665, 1 nM Anti-P-4EBP1 antibody and 300 ng/ml Anti-rabbit-K antibody. Following 90 minutes at room temperature fluorescent signals were read on the Pherastar FSX multimod detector from BMG Labtech (Exc° 340 nm, Em1 620 nm, Em2 665 nm). The IC50 values represent the concentration of compound which inhibits the measurable fluorescence signal by […] as compared to the DMSO only control.

IC50 (Cellular ERK5 Activity)	IC50 [1]	Structure (SMILES)
28 nM	23 nM	Nc1cc(OC(F)(F)F)ccc1C(=O)N1CCC(c2c[nH]c3ncc(C4CCN(C5CC5)CC4)nc23)CC1 [Example 10, [2-Amino-4-(trifluoromethoxy)phenyl]-[4-[2-(1-cyclopropyl-4-piperidyl)-5H-pyrrolo[2,3-b]pyrazin-7-yl]-1-piperidyl]methanone]
112 nM	76 nM	O=C(c1ccc(OC(F)(F)F)cc1)N1CCC(c2c[nH]c3ncc(C4CCN(C5CC5)CC4)nc23)CC1 [Example 11, [4-[2-(1-Cyclopropyl-4-piperidyl)-5H-pyrrolo[2,3-b]pyrazin-7-yl]-1-piperidyl]-[4-(trifluoromethoxy)phenyl]methanone]
96 nM	98 nM	CN1CCC(c2cnc3[nH]cc(C4CCN(C(=O)c5ccc(S(F)(F)(F)(F)F)cc5)CC4)c3n2)CC1 [Example 15, [4-[2-(1-Methyl-4-piperidyl)-5H-pyrrolo[2,3-b]pyrazin-7-yl]-1-piperidyl]-[4-(pentafluoro-λ^6-sulfanyl)phenyl]methanone]
25 nM	38 nM	CN1CCC(c2cnc3[nH]cc(C4CCN(C(=O)c5ccc(S(F)(F)(F)(F)F)cc5N)CC4)c3n2)CC1 [Example 16, [2-Amino-4-(pentafluoro-λ^6-sulfanyl)phenyl]-[4-[2-(1-methyl-4-piperidyl)-5H-pyrrolo[2,3-b]pyrazin-7-yl]-1-piperidyl]methanone]
140 nM	578 nM	O=C(c1ccc(S(F)(F)(F)(F)F)cc1)N1CCC(c2c[nH]c3ncc(C4CCOCC4)nc23)CC1 [Example 17, [4-(pentafluoro-λ^6-sulfanyl)phenyl]-[4-(2-tetrahydropyran-4-yl-5H-pyrrolo[2,3-b]pyrazin-7-yl)-1-piperidyl]methanone]
34 nM	330 nM	Nc1cc(S(F)(F)(F)(F)F)ccc1C(=O)N1CCC(c2c[nH]c3ncc(C4CCOCC4)nc23)CC1 [Example 18, [2-Amino-4-(pentafluoro-λ^6-sulfanyl)phenyl]-[4-(2-tetrahydropyran-4-yl-5H-pyrrolo[2,3-b]pyrazin-7-yl)-1-piperidyl]methanone]
94 nM	176 nM	Nc1cc(S(F)(F)(F)(F)F)ccc1C(=O)N1CCC(c2c[nH]c3ncc(C4CCN(C5CC5)CC4)nc23)CC1 [Example 19, [2-Amino-4-(pentafluoro-λ^6-sulfanyl)phenyl]-[4-[2-(1-cyclopropyl-4-piperidyl)-5H-pyrrolo[2,3-b]pyrazin-7-yl]-1-piperidyl]methanone]
201 nM	282 nM	O=C(c1ccc(S(F)(F)(F)(F)F)cc1)N1CCC(c2c[nH]c3ncc(C4CCN(C5CC5)CC4)nc23)CC1 [Example 20, [4-[2-(1-Cyclopropyl-4-piperidyl)-5H-pyrrolo[2,3-b]pyrazin-7-yl]-1-piperidyl]-[4-(pentafluoro-λ^6-sulfanyl)phenyl]methanone]
352 nM	359 nM	O=C(c1ccc(OC2CC2)cc1)N1CCC(c2c[nH]c3ncc(C4CCOCC4)nc23)CC1 [Example 21, [4-(Cyclopropoxy)phenyl]-[4-(2-tetrahydropyran-4-yl-5H-pyrrolo[2,3-b]pyrazin-7-yl)-1-piperidyl]methanone]
279 nM	1140 nM	O=C(c1ccc(C(F)(F)C(F)(F)F)cc1)N1CCC(c2c[nH]c3ncc(C4CCOCC4)nc23)CC1 [Example 22, [4-(1,1,2,2,2-Pentafluoroethyl)phenyl]-[4-(2-tetrahydropyran-4-yl-5H-pyrrolo[2,3-b]pyrazin-7-yl)-1-piperidyl]methanone]
4800 nM	13300 nM	O=C(C1CCCCC1)N1CCC(c2c[nH]c3ncc(C4CCOCC4)nc23)CC1 [Example 23, Cyclohexyl-[4-(2-tetrahydropyran-4-yl-5H-pyrrolo[2,3-b]pyrazin-7-yl)-1-piperidyl]methanone]
149 nM	624 nM	O=C(c1ccc(S(F)(F)(F)(F)F)cc1F)N1CCC(c2c[nH]c3ncc(C4CCOCC4)nc23)CC1 [Example 26, [2-Fluoro-4-(pentafluoro-λ^6-sulfanyl)phenyl]-[4-(2-tetrahydropyran-4-yl-5H-pyrrolo[2,3-b]pyrazin-7-yl)-1-piperidyl]methanone]
5430 nM	5560 nM	Nc1cc(OC(F)(F)F)ccc1C(=O)N1CCC(c2c[nH]c3ncc(NC4COC4)nc23)CC1 [Example 27, [2-amino-4-(trifluoromethoxy)phenyl]-[4-[2-(oxetan-3-ylamino)-5H-pyrrolo[2,3-b]pyrazin-7-yl]-1-piperidyl]methanone]
190 nM	405 nM	Nc1cc(OC(F)(F)F)ccc1C(=O)N1CCC(c2c[nH]c3ncc(O[C@@H]4CCOC4)nc23)CC1 [Example 28, [2-amino-4-(trifluoromethoxy)phenyl]-[4-[2-[(3R)-tetrahydrofuran-3-yl]oxy-5H-pyrrolo[2,3-b]pyrazin-7-yl]-1-piperidyl]methanone]
215 nM	399 nM	Nc1cc(OC(F)(F)F)ccc1C(=O)N1CCC(c2c[nH]c3ncc(O[C@H]4CCOC4)nc23)CC1 [Example 29, [2-amino-4-(trifluoromethoxy)phenyl]-[4-[2-[(3S)-tetrahydrofuran-3-yl]oxy-5H-pyrrolo[2,3-b]pyrazin-7-yl]-1-piperidyl]methanone]
86 nM	189 nM	CN1CCN(c2cnc3[nH]cc(C4CCN(C(=O)c5ccc(OC(F)(F)F)cc5)CC4)c3n2)CC1 [Example 31, [4-[2-(4-methylpiperazin-1-yl)-5H-pyrrolo[2,3-b]pyrazin-7-yl]-1-piperidyl]-[4-(trifluoromethoxy)phenyl]methanone, formic acid]
166 nM	993 nM	O=C(c1ccc(OC(F)(F)F)cc1)N1CCC(c2c[nH]c3ncc(NC4CCOCC4)nc23)CC1 [Example 38, [4-[2-(tetrahydropyran-4-ylamino)-5H-pyrrolo[2,3-b]pyrazin-7-yl]-1-piperidyl]-[4-(trifluoromethoxy)phenyl]methanone]
37 nM	307 nM	Nc1cc(OC(F)(F)F)ccc1C(=O)N1CCC(c2c[nH]c3ncc(NC4CCOCC4)nc23)CC1 [Example 39, [2-amino-4-(trifluoromethoxy)phenyl]-[4-[2-(tetrahydropyran-4-ylamino)-5H-pyrrolo[2,3-b]pyrazin-7-yl]-1-piperidyl]methanone]
180 nM	1010 nM	O=C(c1ccc(OC(F)(F)F)cc1)N1CCC(c2c[nH]c3ncc(N4CCOCC4)nc23)CC1 [Example 40, [4-(2-morpholino-5H-pyrrolo[2,3-b]pyrazin-7-yl)-1-piperidyl]-[4-(trifluoromethoxy)phenyl]methanone]
308 nM	> 30000 nM	O=C(c1ccc(OC(F)(F)F)cc1)N1CCC(c2c[nH]c3ncc(N4CCC(F)(F)CC4)nc23)CC1 [Example 41, [4-[2-(4,4-difluoro-1-piperidyl)-5H-pyrrolo[2,3-b]pyrazin-7-yl]-1-piperidyl]-[4-(trifluoromethoxy)phenyl]methanone]
480 nM	> 30000 nM	O=C(c1ccc(C(O)(C(F)(F)F)C(F)(F)F)cc1)N1CCC(c2c[nH]c3ncc(C4CCOCC4)nc23)CC1 [Example 42, [4-(2-tetrahydropyran-4-yl-5H-pyrrolo[2,3-b]pyrazin-7-yl)-1-piperidyl]-[4-[2,2,2-trifluoro-1-hydroxy-1-(trifluoromethyl)ethyl]phenyl]methanone]
272 nM	639 nM	Nc1cc(OC(F)(F)F)ccc1C(=O)N1CCC(c2c[nH]c3ncc(OC4COC4)nc23)CC1 [Example 44, [2-amino-4-(trifluoromethoxy)phenyl]-[4-[2-(oxetan-3-yloxy)-5H-pyrrolo[2,3-b]pyrazin-7-yl]-1-piperidyl]methanone]
